Reference: patent US20200276258A1, “PHARMACEUTICAL COMPOSITION FOR CONTROLLING BLOOD SUGAR” (BEIJING HEBABIZ BIOTECHNOLOGY CO., Inc., priority 2017, published 2020)
Where a name gives a salt, the structure may show the parent alone.

How the values were obtained:
[1] = tested on: type 2 diabetes rat model (high-fat and high-sugar feed + streptozotocin); experiment: Combined drug use experiment (HH003B with Empagliflozin): HbA1c in rat model; format: in vivo, Wistar rats; conditions: model rats
Text: Wistar rats were bred adaptively for 1 week. The subjects were randomly divided into the normal Control group (10) and the modeling group (60) according to their body weight from the second week. The normal Control group (Control) was fed with basic feed, and the model group was fed with high-fat and high-sugar feed. […] On the 9th weekend, rats fasted overnight, measured FBG and insulin levels, and calculated the insulin index (ISI). The model would be successfully established if the fasting blood glucose (>) was 11.1 mmol/L and the ISI was decreased. The successfully modeled rats were randomly divided into Model group, Metformin hydrochloride group, HH003 group, and HH003B group, with 10 rats in each group. […] Fasting but gave water after the last dose, and then weighted the rats after 12 hours. Detected the content of fasting insulin (Insulin), separated the serum, detected the high-density lipoprotein (HDL), free fatty acid (FFA) and glycosylated hemoglobin (GHB). […] Empagliflozin group was given by gavage 1 mg/kg once a day. […] HbA1c was determined at the end of the experiment.

[2] = tested on: type 2 diabetes rat model (high-fat and high-sugar feed + streptozotocin); experiment: Pharmacodynamic experiment: biochemical indexes of rat model after 4 weeks of administration; format: in vivo, Wistar rats; conditions: model rats
Text: Wistar rats were bred adaptively for 1 week. The subjects were randomly divided into the normal Control group (10) and the modeling group (60) according to their body weight from the second week. The normal Control group (Control) was fed with basic feed, and the model group was fed with high-fat and high-sugar feed. […] On the 9th weekend, rats fasted overnight, measured FBG and insulin levels, and calculated the insulin index (ISI). The model would be successfully established if the fasting blood glucose (>) was 11.1 mmol/L and the ISI was decreased. The successfully modeled rats were randomly divided into Model group, Metformin hydrochloride group, HH003 group, and HH003B group, with 10 rats in each group. […] Fasting but gave water after the last dose, and then weighted the rats after 12 hours. Detected the content of fasting insulin (Insulin), separated the serum, detected the high-density lipoprotein (HDL), free fatty acid (FFA) and glycosylated hemoglobin (GHB).

[3] = 4 weeks, metformin hydrochloride 200 mg/kg daily gavage, HH003/HH003B 30% of feed (about 13 g/d/kg)

SMILES | HbA1c (glycosylated hemoglobin) ([1]; 4 weeks, Empagliflozin 1 mg/kg gavage once a day, HH003B 15% of feed (about 7 g/d/kg), combination both) [mg/dL] | effect on glycosylated hemoglobin, in words ([1]; Empagliflozin 1 mg/kg, HH003B reduced dose (15% of feed)) | effect on HDL level, in words ([2]; 4 weeks of administration) | effect on glycosylated hemoglobin GHB level, in words ([2]; 4 weeks of administration, versus Model and Control groups) | effect on the disease condition of type 2 diabetes, in words ([2]; 4 weeks, HH003/HH003B 30% of feed, metformin hydrochloride 200 mg/kg) | FFA (free fatty acid), serum [2, 3] [mmol/L] | GHB (glycosylated hemoglobin) [2, 3] [mmol/L] | HDL (high-density lipoprotein), serum [2, 3] [mmol/L] | Insulin (fasting insulin) ([2]; 4 weeks, metformin hydrochloride 200 mg/kg daily gavage, HH003/HH003B 30% of feed (about 13 g/d/kg), 12 h fasting, mean ± spread) [uIU/ml]
OC[C@H]1O[C@@H](c2ccc(Cl)c(Cc3ccc(O[C@H]4CCOC4)cc3)c2)[C@H](O)[C@@H](O)[C@@H]1O [Empagliflozin] | 7.01 ± 0.17 | no effect | – | – | – | – | – | – | –
CN(C)C(=N)N=C(N)N [Metformin, metformin hydrochloride] | – | – | significantly increase HDL level | significantly reduce the GHB level of the rats but still significantly higher than that of the normal rats | only improve the disease condition of type 2 diabetes to a certain extent | 0.56 ± 0.03 | 15.07 ± 0.85 | 0.74 ± 0.15 | 31.15 ± 6.28
